Results on seven compounds are retold here after paper PMC7673538 (PLoS Biology, 2020).

One may read the EC50 as the midpoint of the concentration-response curve.

For data set [1], the system named is CV-B3. As to the kind of experiment: microbe, parasite or virus in culture. The format is cell-based, coxsackievirus B3. To be noted: for EC50: Enterovirus B.
A short description of data set [2]: in vitro. To be noted: human.
The target of data set [3] is T1, human DAT (Homo sapiens, UniProt Q01959).
T1 construct: expressed in transfected cells; host or cells: HEK293 (gift of Dr. Hoener, F. Hoffmann-La Roche)
T1 sequence (Q01959 whole entry): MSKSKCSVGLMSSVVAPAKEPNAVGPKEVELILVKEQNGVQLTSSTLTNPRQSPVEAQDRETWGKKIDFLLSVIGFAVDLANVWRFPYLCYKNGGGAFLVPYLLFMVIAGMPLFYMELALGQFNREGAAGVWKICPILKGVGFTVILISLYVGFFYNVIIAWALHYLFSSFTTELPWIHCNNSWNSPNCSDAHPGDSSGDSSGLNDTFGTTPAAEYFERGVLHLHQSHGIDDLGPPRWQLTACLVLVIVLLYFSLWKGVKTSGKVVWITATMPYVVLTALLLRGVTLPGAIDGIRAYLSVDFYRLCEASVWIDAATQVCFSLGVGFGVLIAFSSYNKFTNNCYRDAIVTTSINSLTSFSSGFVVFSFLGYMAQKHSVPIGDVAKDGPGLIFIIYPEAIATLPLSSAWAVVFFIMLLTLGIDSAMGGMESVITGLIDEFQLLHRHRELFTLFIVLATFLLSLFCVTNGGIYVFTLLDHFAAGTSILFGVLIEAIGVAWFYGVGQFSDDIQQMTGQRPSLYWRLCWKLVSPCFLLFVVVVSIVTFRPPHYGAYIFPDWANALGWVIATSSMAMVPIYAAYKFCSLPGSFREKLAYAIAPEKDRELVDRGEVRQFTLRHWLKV
The format is cell-based.

Setting [4] is: CVB3, HeLa R19, read-out: CV-B3 EC50 Average.
The mark [5] stands for this setting: CVB3, HeLa R19, read-out: CV-B3 Exp 1 EC50.
[6] abbreviates: CVB3, HeLa R19, read-out: CV-B3 Exp2 EC50.

Like-named read-outs stand apart in the source and are kept apart here.

For the compound `COc1ccc(N(Cc2ccc(F)cc2)C(C)=O)cc1` [Compound 5a, N-(4-fluorobenzyl)-N-(4-methoxyphenyl)acetamide], the “antiviral activity against CV-B3 (in words)” value (shortened to “antiviral activity”) in data set [1] was “loss of antiviral activity”. Besides, the 50% effective concentration (EC50) in data set [1] (CVB3, HeLa R19) is over 30 µM; in data set [1] (setting [4]), over 30 µM; in data set [1] (setting [5]), over 30 µM; in data set [1] (setting [6]), over 30 µM. Also, the CC50 in data set [2] (CC50), in data set [2] (CC50 Average), in data set [2] (Exp 1 CC50) and in data set [2] (Exp2 CC50) was over 30 µM in each case.
With `CNCC(=O)N(Cc1ccc(F)cc1)c1ccc(OC)cc1` [Compound 6, N-(4-fluorobenzyl)-N-(4-methoxyphenyl)-2-(methylamino)acetamide], the “antiviral activity” value in data set [1] is “loss of antiviral activity”. The EC50 in data set [1] (CVB3, HeLa R19) was over 30 µM; in data set [1] (setting [4]), over 30 µM; in data set [1] (setting [5]), over 30 µM; in data set [1] (setting [6]), over 30 µM. Further, the CC50 in data set [2] (CC50), in data set [2] (CC50 Average), in data set [2] (Exp 1 CC50) and in data set [2] (Exp2 CC50) was over 30 µM in each case.
Turning to `COc1ccc(N(Cc2ccco2)C(=O)c2ccc(F)cc2)cc1` [Compound 15, 4-Fluoro-N-(furan-2-ylmethyl)-N-(4-methoxyphenyl)benzamide], the “antiviral activity” value in data set [1] is on record as “abolished antiviral acitivty”. The EC50 in data set [1] (CVB3, HeLa R19) is over 30 µM; in data set [1] (setting [4]), over 30 µM; in data set [1] (setting [5]), over 30 µM; in data set [1] (setting [6]) it was over 30 µM. For the same compound, the CC50 in data set [2] (CC50), in data set [2] (CC50 Average), in data set [2] (Exp 1 CC50) and in data set [2] (Exp2 CC50) was over 30 µM each time.
Take `COc1ccc(N(Cc2ccc(F)cc2)Cc2ccco2)cc1` [Compound 5g, N-(4-fluorobenzyl)-N-(furan-2-ylmethyl)-4-methoxyaniline]: in data set [1], the “antiviral activity” value is “loss of antiviral activity”. In addition, the EC50 in data set [1] (CVB3, HeLa R19) is over 30 µM; in data set [1] (setting [4]), over 30 µM; in data set [1] (setting [5]), over 30 µM; in data set [1] (setting [6]), over 30 µM. The CC50 in data set [2] (CC50), in data set [2] (CC50 Average), in data set [2] (Exp 1 CC50) and in data set [2] (Exp2 CC50) was over 30 µM in each case.
With `CNCCC(Oc1ccc(C(F)(F)F)cc1)c1ccccc1` (stereo not shown) [fluoxetine, reference compound], in data set [3], the “inhibition of DAT function (in words)” value was “promiscuously inhibited also the DAT and NET activity at 100 μM”.
In the case of `COc1ccc(N(Cc2ccc(F)cc2)S(=O)(=O)c2ccco2)cc1` [Compound 5b, N-(4-fluorobenzyl)-N-(4-methoxyphenyl)furan-2-sulfonamide], the “antiviral activity” value in data set [1] is “loss of antiviral activity”. For the same compound, the EC50 was over 30 µM in data set [1] (CVB3, HeLa R19); over 30 µM in data set [1] (setting [4]); over 30 µM in data set [1] (setting [5]); over 30 µM in data set [1] (setting [6]). The CC50 in data set [2] (CC50), in data set [2] (CC50 Average), in data set [2] (Exp 1 CC50) and in data set [2] (Exp2 CC50) was over 30 µM in each case.
For `COc1ccc(N(Cc2ccc(F)cc2)C(=O)C2CCCO2)cc1` (stereo not shown) [Compound 5f, N-(4-Fluorobenzyl)-N-(4-methoxyphenyl)tetrahydrofuran-2-carboxamide], the “antiviral activity” value in data set [1] is given as “loss of antiviral activity”. In addition, the EC50 is over 30 µM in data set [1] (CVB3, HeLa R19); over 30 µM in data set [1] (setting [4]); over 30 µM in data set [1] (setting [5]); over 30 µM in data set [1] (setting [6]). Besides, the CC50 in data set [2] (CC50), in data set [2] (CC50 Average), in data set [2] (Exp 1 CC50) and in data set [2] (Exp2 CC50) was over 30 µM throughout.
